Entries after “also recorded” stand apart in the source; their conditions may differ.

We go through 1 molecule from US20060020036A1, “Methods and compositions to promote bone homestasis” (priority 2004, published 2006).

The subject of one assay is primary human MPCs. Description: Mineralization assay (Alizarin RedS / Von Kossa). Format: cell-based. As to conditions: MPCs with NR1H3 and T0901317. Here is the method:
On day one, primary human MPCs are seeded in a 6 well plate (Costar or Nunc) at a density of 50,000 to 250,000 cells per well, typically at 100,000 cells per well. MPCs are co-infected one day later with AdC15-hCAR (MOI 750) and Ad-control (eGFP or BMP2) or hit-virus (Ad5) (at MOIs between 250 and 20,000, typically at MOIs 5000 and 2500). For Ad-GPCR or Ad-NHR experiments, cells can additionally be treated with specific ligands. These are added at the EC50 concentration and at concentrations 5-10 times higher and lower. Ligands are added 2-3 times per week. Medium supplemented with 100 μg/ml L-ascorbate and 10 mM beta-glycerophosphate, is refreshed 2 times a week. 20 to 30 days after the start of the experiment, cells are stained with Von Kossa stain or with Alizarin RedS stain.
The Alizarin RedS staining is carried out as follows: cells are washed once with PBS, fixed with 10% paraformaldehyde for 45 minutes at 4° C., and washed 2 times with PBS. Cells are incubated with 40 mM aqueous Alizarin RedS solution, pH 4.1-4.3 for 10 minutes followed by 5 washes with distilled water. Staining is evaluated and photographed using white light.

Assay [1] relates to osteogenic markers mRNA in MPCs infected with Ad-NR1H3. The assay can be described thus: Osteogenic marker mRNA levels (rtRT-PCR) in MPCs infected with Ad-NR1H3 + T0901317. Conditions: Ad-NR1H3 + T0901317 (1 μM). It counts as cell-based, human. Here is the method: Osteogenic differentiation of MPCs into osteoblasts is accompanied by the up-regulation of osteogenic proteins. […] The MPCs that are used in this study are profiled for the up-regulation of a limited set of osteogenic markers by BMP2. Markers that show differential expression for BMP2 are subsequently tested against mRNA derived from Ad-NR5A2 infected cells or derived from Ad-NR1H3+T0901317 treated cells. 100,000 MPCs are seeded in each well of a 6 well plate in 2 ml MPC medium, containing 10% FCS. The next day, after incubation at 37° C., 10% CO2 in a humidified incubator, cells are co-infected with AdC15-hCAR (final MOI of 750) and Ad-NR5A2, Ad-NR1H3+T0901317 (1 μM) or Ad-BMP2 (positive control) or Ad-eGFP or Ad-luciferase as negative controls (final MOIs of 1250 and 2500). Cells are incubated at 37° C., 10% CO2 in a humidified incubator for a further six days unless cells are already harvested for RNA isolation. Virus is removed and replaced by 2 ml fresh OS medium (proprietary medium containing 10% FCS). Over the next 3 weeks, medium is refreshed 3 times per 2 weeks. Every other time, medium is refreshed half or completely. Monolayers are harvested at several time points (see FIG. 15), total RNA is harvested and quantified and rtRT-PCRs are run as follows: monolayers are washed with ice cold PBS and harvested by adding SV RNA Lysis Buffer. Total RNA is prepared using the SV Total RNA isolation System (Promega, Cat # Z3100). RNA concentration is measured with the Ribogreen RNA Quantification kit (Molecular Probes, Leiden, The Netherlands, Cat No. R-11490). cDNA synthesis is performed using 20 ng total RNA per reaction using the TaqMan Universal PCR Master Mix, No AmpErase UNG, kit (Applied Biosystems, Warrington, UK, Part number 4324018). For each reverse transcriptase (RT) reaction a minus-RT reaction (negative control: no enzyme included in the reaction) is performed. The real-time reverse transcriptase (rtRT)-PCR reaction is performed with gene specific primers on both cDNA and minus-RT samples, using the SYBR Green PCR Master Mix (Applied Biosystems, Warrington, UK, Part number 4309155). Primers are quality controlled by performing PCR reactions on human genomic DNA and on plasmids containing the cDNA encoded by the gene studied if available. If the quality is unsatisfactory, additional primers are designed or validated primer sets are purchased (ABI). For the normalization of the expression levels a RT-PCR reaction is performed on human β-actin using the Human β-actin kit (Applied Biosystems, Warrington, UK, Part number 4310881E). The following program is run on a real-time PCR apparatus (ABI PRISM 7000 Sequence Detection System): 10 min at 25° C., 30 min at 48° C., 5 min at 95° C.
Expression levels for osteogenic marker genes are first normalized for beta-actin levels. The resulting data for Ad-BMP2, Ad-NR5A2 and Ad-NR1H3+T0901317 (1 μM) samples are then compared to those of Ad-eGFP or Ad-luciferase negative control samples, harvested at the same time points, for cells infected at the same MOI.

In assay [2] the test system is RUNX2 (DN-RUNX2) in MPCs infected with Ad-NR1H3. The assay can be described thus: DN-RUNX2 assay (AP activity in MPCs). Format: cell-based, human. Conditions: Ad-NR1H3 in the presence of T0901317, Ad-DN-RUNX2 vs Ad-luciferase, 6 days post infection. How it is done:
MPCs are seeded at 1000 cells/well in a 384 well plate and infected the next day with adenoviruses encoding hCAR (MOI 250), Ad-BMP2 (MOIs 6000, 2000, 666) and one of Ad-DN-RUNX2 or Ad-luciferase (MOIs 2000 or 666). Alkaline phosphatase activity is read 6 days post infection.
MPCs are seeded at 1000 cells/well in a 384 well plate and are infected the next day with adenoviruses encoding hCAR (MOI 250), Ad-BMP2, Ad-ESRRG, Ad-NR5A2, Ad-NR1H3 (MOIs 6000, 2000, 666) and one of Ad-DN-RUNX2 or Ad-luciferase (MOI 1000 or MOIs 2000 and 666) (see FIG. 19 (C)). Alkaline phosphatase activity is read 6 days post infection and raw data are analysed.

[3] abbreviates: up-regulated if 4-fold higher than negative control, one or more time points.

Turning to `O=S(=O)(c1ccccc1)N(CC(F)(F)F)c1ccc(C(O)(C(F)(F)F)C(F)(F)F)cc1` [T0901317, N-(2,2,2-trifluoroethyl)-N-[4-[2,2,2-trifluoro-1-hydroxy-1-(trifluoromethyl)ethyl]phenyl]-benzenesulfonamide], the mineralization entry with primary human MPCs is “score well”. For the same molecule, in assay [1] (setting [3]), the “BAP mRNA expression” value is given as “up-regulated expression”, the “PTHR1 mRNA expression” value is given as “up-regulated expression”, the “RANKL mRNA expression” value is “up-regulated expression” and the “aromatase mRNA expression” value is on record as “up-regulated expression”. In addition, in assay [1] (setting [3]), the “osteopontin mRNA expression” value is “up-regulated expression”. For the same molecule, the “mRNA levels of osteogenic markers” value in assay [1] (MPCs) was “up-regulate mRNA levels of osteogenic markers”. Also, the “up-regulation of AP activity upon overexpression of DN-RUNX2” value in assay [2] is “overexpression of DN-RUNX2 significantly reduces the up-regulation of AP activity; also recorded: DN-RUNX2 interferes with induction of AP activity”.
